Bliss excess data for seven molecules are collected here from the supplement of paper PMC11061612.

Holding throughout (experiment): Bliss excess, mean over the matrix (fraction); higher = more synergy
The subject of experiment [1] is 8305C (Thyroid Gland Carcinoma). The essentials: (§1)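 After 24 hours at 37°C and 5% CO2 in 1536-well plates, cells in DMEM/F12 or RPMI plus 10% FBS received two-drug dose matrices for 72 hours. Viability came from CellTiter-Glo 2.0 luminescence and was scaled as inhibition, anchored at 0 by vehicle wells and at 1 by blank wells. Combination Emax is taken as the second-highest inhibition in the matrix, and Bliss excess as the observed combination effect less EA + EB − EA·EB, with EA and EB the single-agent effects.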

In experiment [2] the test system is CAL-54 (Kidney Carcinoma). The essentials: as §1
For experiment [3], the system named is HARA (Squamous Cell Lung Carcinoma). The essentials:
as §1

Experiment [4] concerns HMV-II (Melanoma). The essentials: as §1
Experiment [5] deals with HO-1-u-1 (Oral Cavity Carcinoma). The essentials: as §1
For experiment [6], the system named is Hs-633T (Other Solid Carcinomas). The essentials:
as §1

Experiment [7] has as its system LU-139 (Small Cell Lung Carcinoma). The essentials:
as §1

The test system of experiment [8] is LoVo (Colorectal Carcinoma). The essentials:
as §1

Experiment [9] deals with Mewo (Melanoma). The essentials: as §1
Experiment [10] deals with NB14 (Neuroblastoma). The essentials:
as §1

In experiment [11] the test system is NCI-H2795 (Mesothelioma). Summed up: as §1
The test system of experiment [12] is NCI-H28 (Mesothelioma). Summed up: as §1
Experiment [13] has as its system PCI-30 (Head and Neck Carcinoma). The essentials: as §1
Experiment [14] deals with RKO (Colorectal Carcinoma). The essentials:
as §1

The test system of experiment [15] is RPMI-6666 (Non-Cancerous). Summed up:
as §1

Experiment [16] relates to SH-4 (Melanoma). Summed up: as §1
In experiment [17] the test system is SK-OV-3 (Ovarian Carcinoma). The essentials:
as §1

In experiment [18] the test system is SUP-T1 (T-Lymphoblastic Leukemia). Summed up: as §1
In experiment [19] the test system is SW1116 (Colorectal Carcinoma). Summed up: as §1
Experiment [20] has as its system SW1271 (Small Cell Lung Carcinoma). Summed up: as §1

In the case of `C[C@@H]1COCCN1c1cc(C2([S@](C)(=N)=O)CC2)nc(-c2ccnc3[nH]ccc23)n1` [AZD6738] + C1CC(C1)(C(=O)[O-])C(=O)[O-].N.N.[Pt+2] [Carboplatin] (first compound max 10 µM, 7x7, partner max 10 µM), the Bliss excess in experiment [1] was -0.046; in [2] it was -0.0355; in experiment [3], -0.0226; in experiment [4] it was -0.0067; in [5], -0.074; in [6], -0.0264. The Bliss excess was 0.0013 in experiment [7]; -0.0743 in experiment [8]; -0.0192 in [9]; -0.0044 in experiment [10]; -0.0819 in experiment [11]; -0.0606 in [12]. Besides, the Bliss excess in experiment [13] was -0.0362; in experiment [14], -0.0594; in experiment [15], -0.0614; in [16] it was -0.057; in [17] it was -0.0788; in [18], -0.0298. Further, the Bliss excess in experiment [19] was -0.0483; in experiment [20], -0.0547.
With `N#Cc1cnc(Nc2cc(NC[C@H]3CNCCO3)c(C(F)(F)F)cn2)cn1` [SRA737] + Nc1ccn([C@@H]2O[C@H](CO)[C@@H](O)C2(F)F)c(=O)n1 [Gemcitabine] (first compound max 10 µM, 7x7, partner max 0.3 µM), the Bliss excess was -0.0158 in experiment [1]; -0.0458 in experiment [2]; -0.0013 in experiment [3]; -0.0122 in experiment [4]; 0.0492 in experiment [5]; 0.0301 in experiment [6]. Moreover, the Bliss excess in experiment [7] was 0.0091; in experiment [8], -0.0137; in [9], -0.0047; in [10] it was 0.0218; in experiment [11], -0.0258; in [12], 0.0118. Besides, the Bliss excess in [13] is -0.0288; in [14] it was -0.0179; in experiment [15] it was -0.0487; in [16] it was 0.0138; in experiment [17], 0.0128; in experiment [18], -0.0658. For the same molecule, the Bliss excess is 0.0727 in experiment [19] and 0.0198 in experiment [20].
For the molecule `C[C@@H](Oc1cc(-c2cnn(C3CCNCC3)c2)cnc1N)c1c(Cl)ccc(F)c1Cl` [Crizotinib] + Cn1cnc2c(F)c(Nc3ccc(Br)cc3Cl)c(C(=O)NOCCO)cc21 [Selumetinib] (first compound max 10 µM, 7x7, partner max 10 µM), the Bliss excess in [1] was 0.0017; in [2], -0.0135; in experiment [3], -0.0366; in [4], -0.0273; in [5] it was -0.0779; in experiment [6] it was 0.0381. For the same molecule, the Bliss excess in [7] is -0.0615; in [8] it was -0.0546; in [9], -0.0431; in experiment [10], 0.0218; in [11], -0.0974; in experiment [12] it was -0.0004. Also, the Bliss excess in experiment [13] is -0.0206; in [14], 0.122; in [15], -0.0622; in [16] it was -0.0768; in experiment [17], -0.0479; in [18] it was -0.0501. Also, the values for the Bliss excess in experiment [19] and in experiment [20] were -0.0239 and 0.0503, respectively.
For `O=C(c1cc(Cc2n[nH]c(=O)c3ccccc23)ccc1F)N1CCN(C(=O)C2CC2)CC1` [Olaparib] + Cc1c2c(nn1C)CSCc1cc(n(C)n1)CSc1cc(c3ccccc3c1)OCCCc1c(C(=O)O)n(C)c3c-2c(Cl)ccc13 [AZD5991] (first compound max 10 µM, 7x7, partner max 1 µM), the Bliss excess in experiment [1] was -0.0391; in [2], -0.0272; in experiment [3], -0.0358; in [4] it was -0.0561; in experiment [5] it was -0.0224; in experiment [6], -0.0037. In addition, the Bliss excess is -0.0263 in experiment [7]; -0.0591 in [8]; -0.0652 in experiment [9]; -0.0183 in experiment [10]; -0.0207 in experiment [11]; -0.0349 in experiment [12]. Further, the Bliss excess in experiment [13] is -0.048; in experiment [14], -0.0205; in [15] it was 0.017; in [16], -0.0412; in experiment [17] it was -0.06; in experiment [18] it was -0.0286. For the same molecule, the Bliss excess was -0.0503 in [19] and -0.0523 in experiment [20].
On to `Cc1c2c(nn1C)CSCc1cc(n(C)n1)CSc1cc(c3ccccc3c1)OCCCc1c(C(=O)O)n(C)c3c-2c(Cl)ccc13` [AZD5991] + CS(=O)(=O)CCNCc1ccc(-c2ccc3ncnc(Nc4ccc(OCc5cccc(F)c5)c(Cl)c4)c3c2)o1 [Lapatinib] (first compound max 1 µM, 7x7, partner max 10 µM), for which the Bliss excess is -0.042 in experiment [1]; 0.0368 in experiment [2]; 0.0632 in [3]; -0.0587 in experiment [4]; 0.0293 in [5]; -0.008 in experiment [6]. Also, the Bliss excess was -0.0068 in experiment [7]; -0.0052 in experiment [8]; -0.013 in [9]; 0.0335 in experiment [10]; -0.016 in experiment [11]; 0.0147 in [12]. The Bliss excess was 0.0446 in [13]; 0.0196 in [14]; -0.1 in [15]; -0.01 in experiment [16]; 0.0591 in experiment [17]; -0.0863 in experiment [18]. Also, the figures for the Bliss excess in experiment [19] and in experiment [20] were -0.0369 and -0.0749, respectively.
With `C=CCn1c(=O)c2cnc(Nc3ccc(N4CCN(C)CC4)cc3)nc2n1-c1cccc(C(C)(C)O)n1` [AZD1775] + Nc1ccn([C@@H]2O[C@H](CO)[C@@H](O)C2(F)F)c(=O)n1 [Gemcitabine] (first compound max 1 µM, partner max 0.3 µM), the Bliss excess in experiment [1] is -0.0524; in [2], -0.0031; in experiment [3], 0.0187; in experiment [4], -0.0355; in [5], -0.0446; in experiment [6], 0.0094. The Bliss excess in experiment [7] was -0.0304; in experiment [8], -0.0005; in experiment [9], -0.0623; in [11], -0.0549; in experiment [12] it was -0.0576; in experiment [13] it was 0.0252. Further, the Bliss excess in [14] is -0.0367; in experiment [15], -0.0197; in experiment [16], -0.0092; in experiment [17] it was -0.0635; in experiment [18], -0.047; in experiment [19], -0.0077. In experiment [20], the Bliss excess is -0.0558.
Take `Cc1c2c(nn1C)CSCc1cc(n(C)n1)CSc1cc(c3ccccc3c1)OCCCc1c(C(=O)O)n(C)c3c-2c(Cl)ccc13` [AZD5991] + Nc1ccn([C@@H]2O[C@H](CO)[C@@H](O)C2(F)F)c(=O)n1 [Gemcitabine] (first compound max 1 µM, 7x7, partner max 0.3 µM): the Bliss excess in experiment [1] was -0.121; in experiment [3] it was -0.0107; in [4] it was 0.0013; in experiment [5] it was 0.0217; in experiment [6] it was -0.0611; in experiment [7] it was -0.0133. The Bliss excess in [8] was -0.0693; in experiment [9], -0.0395; in [10], -0.0213; in experiment [11], -0.0687; in [12], -0.061; in [13] it was -0.0531. Also, the Bliss excess in experiment [14] is -0.0368; in experiment [15], -0.0411; in experiment [16], -0.0246; in experiment [17], -0.0401; in [18], -0.0332; in experiment [19], -0.0213. The Bliss excess in [20] is -0.0354.
